Values of other authors in PMC8127065 (Journal of controlled release : official journal of the …, 2021).

water solubility: 1 to 2 µg/mL
Structure (SMILES): C=CC[C@@H]1/C=C(\C)C[C@H](C)C[C@H](OC)[C@H]2O[C@@](O)(C(=O)C(=O)N3CCCC[C@H]3C(=O)O[C@H](/C(C)=C/[C@@H]3CC[C@@H](O)[C@H](OC)C3)[C@H](C)[C@@H](O)CC1=O)[C@H](C)C[C@@H]2OC [Tacrolimus]
